Test results taken from patent publication US7524851B2 (Robert Bosch Gesellschaft fur Medizinische Forschung (RBMF), priority 2003, dated 2009).

Columns and labels:
Format in all cases: cell-based, human
vav = vav protein expression (Western blot, immunocytochemistry)
Description: Western blots: Equal amounts of extract (30 μg) were added to 8 μl of electrophoresis sample buffer (Firma Roth; Karlsruhe, Germany). After boiling, the extracts were loaded on 15% SDS-PAGE gels and electrophoretically separated. Proteins were transferred to nitrocellulose membranes, and detection was performed with the ECL Western blotting analysis system (Amersham). […]
Immunocytochemical analysis: Immunocytochemistry was performed as described in Atreya et al., supra and Finotto et al., J. Exp. Med. 193:1247-1260 (2001)). […] Cells were rinsed with PBS, and nuclei were counterstained with Hoechst33342 blue for fluorescence (Molecular Probes; Burlingame, Calif., USA). Finally, cells were washed in PBS and analyzed with an Olympus Microscope. Six to ten high-power fields were finally analyzed in all patients per condition, and selected high-power fields were further analyzed by confocal laser microscopy.

CD4+ T cells = test: Apoptosis by Nicoletti staining and transmission electron microscopy; conditions: 5 days
Description: For FACS analysis, apoptotic cells were detected by staining with annexin V and propidium iodide using the Annexin V FITC Apoptosis Detection Kit I (PharMingen) (Atreya et al., Nat. Med. 6:583-588 (2000)). In brief, T cells were washed twice in PBS, and the pellet was resuspended in annexin V binding buffer (PharMingen) at a concentration of 10^6 cells per milliliter. Annexin V FITC and propidium iodide were added (5 ill of each per 10^5 cells). Samples were gently mixed and incubated for 15 minutes at room temperature in the dark before FACS analysis. To verify the results obtained with the annexin V/propidium iodide staining, analysis of T cells displaying DNA fragmentation was also determined by the Nicoletti technique, as described in (Nicoletti et al., J. Immunol. Methods 139:271-279 (1991)). 10^6 T cells were fixed in 70% ethanol, washed once in HBSS, resuspended in 1 ml of HBSS and 1 ml of phosphate citric acid buffer (0.2 mol/l Na2PO4 and 0.004 mol/l citric acid [pH 7.8]), and incubated at room temperature for 5 minutes. After centrifugation, cells were resuspended in 1 ml of HBSS containing 20 μg/ml propidium iodide and 10 U DNase-free RNase A and incubated at room temperature for 30 minutes. Finally, cells were analyzed on a FACScan flow cytometer. Because of the fragmentation of DNA, apoptotic cells appear as hypodiploid in the DNA histogram.

CD45RO memory T cells = test: Annexin V/propidium iodide FACS apoptosis of stimulated CD45RO T cells; conditions: rIL-2, anti-CD3 plus anti-CD28; 5 days; more pronounced than in CD45RA T cells
Source text: Isolation of primary CD4^+ T lymphocytes and lamina propria cells: Human peripheral blood mononuclear cells (PBMCs) from healthy volunteers (25-42 years of age) and patients with Crohn's disease (31-65 years of age) were isolated using Ficoll-Hypaque gradients. PBMCs were further purified using CD4 monoclonal antibodies attached to immunomagnetic beads according to the manufacturer's protocol, followed by treatment with Detachabead (Dynal; Oslo, Norway). In some cases, CD4^+ T cells were further separated by negative selection techniques using CD45RO or CD45RA monoclonal antibodies (PharMingen; Heidelberg, Germany) and immunomagnetic beads (Dynal). […]
For FACS analysis, apoptotic cells were detected by staining with annexin V and propidium iodide using the Annexin V FITC Apoptosis Detection Kit I (PharMingen) (Atreya et al., Nat. Med. 6:583-588 (2000)). […] To verify the results obtained with the annexin V/propidium iodide staining, analysis of T cells displaying DNA fragmentation was also determined by the Nicoletti technique, as described in (Nicoletti et al., J. Immunol. Methods 139:271-279 (1991)). […] Finally, cells were analyzed on a FACScan flow cytometer. […]

Row | Structure (SMILES) | expression of the guanosine exchange factor vav (vav) | number of apoptotic CD4+ T cells (CD4+ T cells) | apoptosis of CD45RO memory T cells (CD45RO memory T cells)
1 | Sc1ncnc2nc[nH]c12 [6-MP, 6-mercaptopurine] | induced | marked increase | induced apoptosis
2 | Cn1cnc([N+](=O)[O-])c1Sc1ncnc2nc[nH]c12 [azathioprine, Azathioprine] | induced | marked increase | induced apoptosis
